Measured values as given in patent US20110230467A1, “4,6-DIAMINONICOTINAMIDE COMPOUND” (Astellas Pharma Inc., priority 2008, published 2011).

Molecular target: T1, human JAK3 kinase domain (Homo sapiens, UniProt P52333)
T1 construct: attached to the N-terminal of the 796-1124 (C-terminal) fragment of the human JAK3 protein; His-tag (N); purchased Carna Biosciences, Inc. (Kobe, Japan); host or cells: baculovirus expression system
Test: JAK3 Inhibition Test (Test Example 1)
Type: biochemical
Details: purified human JAK3 kinase domain; 20 μM ATP in substrate solution; absorbance at 450 nm; read-out: IC50 (JAK3 inhibitory activity)
From the text: (1) Preparation of Human JAK3
Purified human JAK3 kinase domain was purchased from Carna Biosciences, Inc. (Kobe, Japan). This was afforded as described below. His-tag (41 kDa) was attached to the N-terminal of the 796-1124 (C-terminal) fragment of the human JAK3 protein (accession number #NM_000215), expressed using a baculovirus expression system, and then purified using Ni-NTA affinity column chromatography.
(2) Measurement of JAK3 Activity
As substrates, Biotin-Lyn-Substrate-2 (Biotin-XEQED EPEGF YFEWL EPE), X=ε-Acp (Peptide Institute, Inc., Osaka, Japan) and ATP were used. As an assay buffer, 15 mM Tris-HCl, pH 7.5, containing 0.01% Tween 20, and 2 mM DTT (dithiothreitol) was used. Normally, 20 μL of a substrate solution (an assay buffer containing 627 nM Biotin-Lyn-Substrate-2, 20 μM ATP, and 25 mM MgCl2), an assay buffer containing 10 μL of a compound to be tested, and 20 μL of an enzyme solution were added to a microplate, and stirred sufficiently.
After incubation at room temperature for one hour, the plate was washed with a cleaning buffer (50 mM Tris-HCl pH 7.5, 150 mM NaCl, 0.02% Tween 20), and a blocking buffer (a cleaning buffer containing 0.1% Bovine Serum Albumin) was added to the plate. After incubation at room temperature for 30 minutes, the blocking buffer was removed, and an HRP-PY-20 solution (afforded by diluting the HRP-PY-20 solution with the blocking buffer 500 times) was added. After incubation at room temperature for 30 minutes, the plate was washed four times, and a TMB substrate solution (Sigma) was added to the plate. After incubation at room temperature for 4 minutes, 1 M sulfuric acid was added to stop the reaction. Enzyme activity was measured as an absorbance at 450 nm. The JAK3 inhibitory activity of the test compound was calculated assuming that the concentration of the test compound inhibiting JAK3 activity by 50% is an IC50 value.

T1 sequence (P52333 796-1124): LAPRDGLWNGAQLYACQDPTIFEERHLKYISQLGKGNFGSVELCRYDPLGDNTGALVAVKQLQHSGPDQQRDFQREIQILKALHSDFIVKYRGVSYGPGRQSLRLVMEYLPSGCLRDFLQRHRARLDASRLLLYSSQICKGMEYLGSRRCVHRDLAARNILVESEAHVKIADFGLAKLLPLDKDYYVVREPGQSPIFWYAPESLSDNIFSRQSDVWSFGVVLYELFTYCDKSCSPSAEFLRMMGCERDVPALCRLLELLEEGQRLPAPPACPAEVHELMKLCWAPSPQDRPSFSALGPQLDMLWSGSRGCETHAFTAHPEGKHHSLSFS

Row | SMILES | IC50
1 | Cc1nccc(Nc2cc(NC3CCN(c4ccc(C#N)cc4)CC3)c(C(N)=O)cn2)n1 [Example 5-8] | 800 pM
2 | N#Cc1ccc(N2CC[C@@H](Nc3cc(Nc4cnccn4)ncc3C(N)=O)[C@@H](F)C2)nn1 [Example 5-11] | 340 pM
3 | CN1CCC(=O)N(c2ccc(Nc3cc(NCc4c(F)ccc(F)c4F)c(C(N)=O)cn3)nc2)CC1 [Example 12-74] | 740 pM
4 | NC(=O)c1cnc(Nc2ccc(C(=O)N3CCCC3)cn2)cc1NCc1c(F)cccc1F [Example 8-6] | 740 pM
5 | Cc1nccc(Nc2cc(NC3CCN(c4ccc(C#N)cn4)CC3)c(C(N)=O)cn2)n1 [Example 5-9] | 360 pM
6 | N#Cc1ccc(N2CCC(Nc3cc(Nc4ccc(N5C(=O)[C@H]6CC[C@@H]5C6)cn4)ncc3C(N)=O)CC2)nc1 [Example 5-67] | 900 pM
7 | CN1CCCN(C(=O)c2ccc(Nc3cc(NCc4c(F)cccc4F)c(C(N)=O)cn3)nc2)CC1 [Example 8-9] | 1600 pM
8 | N#Cc1cnc(N2CC[C@@H](Nc3cc(Nc4ccncn4)ncc3C(N)=O)[C@@H](F)C2)cn1 [Example 5-15] | 1000 pM
9 | N#Cc1ccc(N2CCC(Nc3cc(Nc4ccc(N5CCCC5=O)cn4)ncc3C(N)=O)CC2)nc1 [Example 5-46] | 860 pM
10 | NC(=O)c1cnc(Nc2ccc(N3CCCCC3=O)cn2)cc1NCc1c(F)ccc(F)c1F [Example 12-54] | 690 pM
11 | NC(=O)c1cnc(Nc2cnccn2)cc1NCc1c(F)ccc(F)c1F [Example 12-50] | 1000 pM
12 | CN1CCN(c2ccc(Nc3cc(NCc4c(F)ccc(F)c4F)c(C(N)=O)cn3)nc2)C(=O)C1 [Example 12-73] | 580 pM
13 | CN1C(=O)N(c2ccc(Nc3cc(NCc4c(F)ccc(F)c4F)c(C(N)=O)cn3)nc2)C(=O)C1(C)C [Example 12-91] | 440 pM
14 | NC(=O)c1cnc(Nc2ccc(N3C(=O)[C@@H]4CC[C@H]3C4)cn2)cc1NCc1c(F)ccc(F)c1F [Example 12-78] | 690 pM
15 | N#Cc1ccc(N2CC[C@@H](Nc3cc(Nc4ccncn4)ncc3C(N)=O)[C@@H](F)C2)nc1 [Example 5-10] | 290 pM
16 | COC1CCN(C(=O)c2ccc(Nc3cc(NCc4c(F)cccc4F)c(C(N)=O)cn3)nc2)CC1 [Example 8-7] | 800 pM
17 | NC(=O)c1cnc(Nc2ccc(N3CCOCCC3=O)cn2)cc1NCc1c(F)ccc(F)c1F [Example 12-81] | 560 pM
18 | N#Cc1ccc(N2CC[C@@H](Nc3cc(Nc4ccc(N5CCCCC5=O)cn4)ncc3C(N)=O)[C@@H](F)C2)nc1 [Example 5-55] | 740 pM
19 | N#Cc1ccc(N2CCC(Nc3cc(Nc4ccncn4)ncc3C(N)=O)CC2)nn1 [Example 5-18] | 1100 pM
20 | NC(=O)c1cnc(Nc2ccc(N3CCCCCC3=O)cn2)cc1NCc1c(F)ccc(F)c1F [Example 12-79] | 790 pM
21 | NC(=O)c1cnc(Nc2ccc(N3C(=O)[C@H]4CC[C@@H]3C4)cn2)cc1NCc1c(F)ccc(F)c1F [Example 12-80] | 690 pM
22 | CN1CCN(C(=O)c2ccc(Nc3cc(NCc4c(F)cccc4F)c(C(N)=O)cn3)nc2)CC1 [Example 8-8] | 1000 pM
23 | CN1CCC(=O)N(c2ccc(Nc3cc(NCc4c(F)cccc4F)c(C(N)=O)cn3)nc2)CC1 [Example 12-97] | 250 pM
24 | Cc1nccc(Nc2cc(N[C@@H]3CCN(c4ccc(C#N)cn4)C[C@@H]3F)c(C(N)=O)cn2)n1 [Example 5-26] | 390 pM
25 | N#Cc1ccc(N2CC[C@@H](Nc3cc(Nc4cnccn4)ncc3C(N)=O)[C@@H](F)C2)nc1 [Example 5-7] | 210 pM
26 | Cc1cnc(Nc2cc(NC3CCN(c4ccc(C#N)nn4)CC3)c(C(N)=O)cn2)cn1 [Example 5-22] | 2000 pM
27 | N#Cc1ccc(N2CC[C@@H](Nc3cc(Nc4ccccn4)ncc3C(N)=O)[C@@H](F)C2)nc1 [Example 5-72] | 140 pM
28 | N#Cc1ccc(N2CCC(Nc3cc(Nc4ccncn4)ncc3C(N)=O)CC2)cn1 [Example 5-25] | 240 pM
29 | NC(=O)c1cnc(Nc2ccc(N3CCOCC3=O)cn2)cc1NCc1c(F)ccc(F)c1F [Example 12-76] | 430 pM
30 | COCc1ccc(Nc2cc(N[C@@H]3CCN(c4ccc(C#N)cn4)C[C@@H]3F)c(C(N)=O)cn2)nc1 [Example 5-73] | 240 pM
